According to paper PMC6409085, “Three odorant-binding proteins are involved in the behavioral response of Sogatella furcifera to rice plant volatiles” (PeerJ, 2019):
pIC50: −log10 of the molar value. Values joined by “and” are separate entries in the source; they are usually repeats but may differ in a detail not shown here. Identical values can stand only once.

Key:
SfurOBP1 = SfurOBP1 (Sogatella furcifera, UniProt V5T8N5); experiment: biochemical; type: binding; details: for Fluorescence competitive binding assay, fluorescence intensity: OBP1, three replicate columns
SfurOBP1, sequence (V5T8N5 entry or part of it): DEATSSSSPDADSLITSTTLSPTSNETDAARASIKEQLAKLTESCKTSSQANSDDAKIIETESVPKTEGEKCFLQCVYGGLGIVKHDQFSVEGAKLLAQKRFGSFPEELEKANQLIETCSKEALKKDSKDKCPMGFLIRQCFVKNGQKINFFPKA
Procedure, shortened: (§1)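 1-NPN displacement assay with odorant competitor at 2–20 µM; protein and probe both 2.0 µM at pH 7.4. Ki is calculated from IC50 using the protein/1-NPN dissociation constant.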

SfurOBP11 = SfurOBP11 (Sogatella furcifera, UniProt V5T6E3); experiment: biochemical; type: binding
SfurOBP11, sequence (V5T6E3 entry or part of it): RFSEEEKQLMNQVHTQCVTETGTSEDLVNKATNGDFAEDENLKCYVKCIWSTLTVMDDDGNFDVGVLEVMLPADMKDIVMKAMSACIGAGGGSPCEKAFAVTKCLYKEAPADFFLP
Procedure, shortened: as §1

SfurOBP2 = SfurOBP2 (Sogatella furcifera, UniProt V5T759); experiment: biochemical; type: binding
SfurOBP2, sequence (V5T759 entry or part of it): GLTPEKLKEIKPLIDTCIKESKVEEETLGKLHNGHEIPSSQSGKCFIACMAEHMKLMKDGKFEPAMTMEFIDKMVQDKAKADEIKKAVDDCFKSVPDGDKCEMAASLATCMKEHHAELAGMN
Procedure, shortened: as §1

SfurOBP3 = SfurOBP3 (Sogatella furcifera, UniProt V5T818); experiment: biochemical; type: binding; details: for Fluorescence competitive binding assay, fluorescence intensity: OBP3, three replicate columns
SfurOBP3, sequence (V5T818 entry or part of it): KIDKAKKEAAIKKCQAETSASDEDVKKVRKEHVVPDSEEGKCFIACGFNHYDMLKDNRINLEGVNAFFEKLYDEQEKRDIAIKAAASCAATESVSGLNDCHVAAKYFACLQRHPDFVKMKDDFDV
Procedure, shortened: as §1

S. furcifera adults = experiment: Y-tube olfactometer behavioral trials; type: in vivo, Sogatella furcifera; details: odorant 50 µL/L vs hexane
Procedure, shortened: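 Single S. furcifera adults (2 days post-emergence, starved 0.5 h) chose between odorant (100 µL of 50 µL/L on filter paper) and hexane control in a glass Y-tube, charcoal-filtered humidified air 300 mL/min per arm, 25 ± 1 °C, 50% RH. Choice scored if insect passed half an arm and stayed >1 min within 10 min; 45 insects per compound, chi-squared test.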

## CCCCCCCCCCC [n-hendecane]
SfurOBP1; ligand concentration 2 (μM)
  Fluorescence competitive binding assay, fluorescence intensity: 8889 and 7931 and 9847
SfurOBP1; ligand concentration 4 (μM)
  Fluorescence competitive binding assay, fluorescence intensity: 9154 and 8432 and 9875
SfurOBP1; ligand concentration 6 (μM)
  Fluorescence competitive binding assay, fluorescence intensity: 7581 and 8720 and 8173
SfurOBP1; ligand concentration 8 (μM)
  Fluorescence competitive binding assay, fluorescence intensity: 8276 and 7641 and 8381
SfurOBP1; ligand concentration 10 (μM)
  Fluorescence competitive binding assay, fluorescence intensity: 7644 and 8267 and 8233
SfurOBP1; ligand concentration 12 (μM)
  Fluorescence competitive binding assay, fluorescence intensity: 8969 and 10263 and 9250
SfurOBP1; ligand concentration 14 (μM)
  Fluorescence competitive binding assay, fluorescence intensity: 8392 and 9042 and 10874
SfurOBP1; ligand concentration 16 (μM)
  Fluorescence competitive binding assay, fluorescence intensity: 8482 and 9466 and 8778
SfurOBP1; ligand concentration 18 (μM)
  Fluorescence competitive binding assay, fluorescence intensity: 11781 and 12671 and 12573
SfurOBP1; ligand concentration 20 (μM)
  Fluorescence competitive binding assay, fluorescence intensity: 13259 and 11367 and 9255
SfurOBP1; SfurOBP1, protein and 1-NPN both 2.0 µM, competitor 2-20 µM, read-out: IC50
  pIC50: < 4.70
SfurOBP11; SfurOBP11, protein and 1-NPN both 2.0 µM, competitor 2-20 µM, read-out: IC50
  pIC50: < 4.70
SfurOBP11; ligand concentration 2, replicate 1
  Fluorescence intensity, fluorescence competitive binding assay, OBP11: 27436
SfurOBP11; ligand concentration 2, replicate 2
  Fluorescence intensity, fluorescence competitive binding assay, OBP11: 25403
SfurOBP11; ligand concentration 2, replicate 3
  Fluorescence intensity, fluorescence competitive binding assay, OBP11: 32188
SfurOBP11; ligand concentration 4, replicate 1
  Fluorescence intensity, fluorescence competitive binding assay, OBP11: 29413
SfurOBP11; ligand concentration 4, replicate 2
  Fluorescence intensity, fluorescence competitive binding assay, OBP11: 28026
SfurOBP11; ligand concentration 4, replicate 3
  Fluorescence intensity, fluorescence competitive binding assay, OBP11: 33638
SfurOBP11; ligand concentration 6, replicate 1
  Fluorescence intensity, fluorescence competitive binding assay, OBP11: 33021
SfurOBP11; ligand concentration 6, replicate 2
  Fluorescence intensity, fluorescence competitive binding assay, OBP11: 33682
SfurOBP11; ligand concentration 6, replicate 3
  Fluorescence intensity, fluorescence competitive binding assay, OBP11: 34343
SfurOBP11; ligand concentration 8, replicate 1
  Fluorescence intensity, fluorescence competitive binding assay, OBP11: 31948
SfurOBP11; ligand concentration 8, replicate 2
  Fluorescence intensity, fluorescence competitive binding assay, OBP11: 30771
SfurOBP11; ligand concentration 8, replicate 3
  Fluorescence intensity, fluorescence competitive binding assay, OBP11: 33124
SfurOBP11; ligand concentration 10, replicate 1
  Fluorescence intensity, fluorescence competitive binding assay, OBP11: 30756
SfurOBP11; ligand concentration 10, replicate 2
  Fluorescence intensity, fluorescence competitive binding assay, OBP11: 30287
SfurOBP11; ligand concentration 10, replicate 3
  Fluorescence intensity, fluorescence competitive binding assay, OBP11: 30522
SfurOBP11; ligand concentration 12, replicate 1
  Fluorescence intensity, fluorescence competitive binding assay, OBP11: 29262
SfurOBP11; ligand concentration 12, replicate 2
  Fluorescence intensity, fluorescence competitive binding assay, OBP11: 31182
SfurOBP11; ligand concentration 12, replicate 3
  Fluorescence intensity, fluorescence competitive binding assay, OBP11: 32197
SfurOBP11; ligand concentration 14, replicate 1
  Fluorescence intensity, fluorescence competitive binding assay, OBP11: 28697
SfurOBP11; ligand concentration 14, replicate 2
  Fluorescence intensity, fluorescence competitive binding assay, OBP11: 28336
SfurOBP11; ligand concentration 14, replicate 3
  Fluorescence intensity, fluorescence competitive binding assay, OBP11: 31391
SfurOBP11; ligand concentration 16, replicate 1
  Fluorescence intensity, fluorescence competitive binding assay, OBP11: 26235
SfurOBP11; ligand concentration 16, replicate 2
  Fluorescence intensity, fluorescence competitive binding assay, OBP11: 27774
SfurOBP11; ligand concentration 16, replicate 3
  Fluorescence intensity, fluorescence competitive binding assay, OBP11: 27525
SfurOBP11; ligand concentration 18, replicate 1
  Fluorescence intensity, fluorescence competitive binding assay, OBP11: 34849
SfurOBP11; ligand concentration 18, replicate 2
  Fluorescence intensity, fluorescence competitive binding assay, OBP11: 34941
SfurOBP11; ligand concentration 18, replicate 3
  Fluorescence intensity, fluorescence competitive binding assay, OBP11: 33114
SfurOBP11; ligand concentration 20, replicate 1
  Fluorescence intensity, fluorescence competitive binding assay, OBP11: 29304
SfurOBP11; ligand concentration 20, replicate 2
  Fluorescence intensity, fluorescence competitive binding assay, OBP11: 30167
SfurOBP11; ligand concentration 20, replicate 3
  Fluorescence intensity, fluorescence competitive binding assay, OBP11: 28561
SfurOBP2; SfurOBP2, protein and 1-NPN both 2.0 µM, competitor 2-20 µM, read-out: IC50
  pIC50: < 4.70
SfurOBP2; ligand concentration 2 (unit not given), replicate column 1 of 3
  Fluorescence competitive binding assay, OBP2 (raw fluorescence reading): 13775
SfurOBP2; ligand concentration 2 (unit not given), replicate column 2 of 3
  Fluorescence competitive binding assay, OBP2 (raw fluorescence reading): 13769
SfurOBP2; ligand concentration 2 (unit not given), replicate column 3 of 3
  Fluorescence competitive binding assay, OBP2 (raw fluorescence reading): 13734
SfurOBP2; ligand concentration 4 (unit not given), replicate column 1 of 3
  Fluorescence competitive binding assay, OBP2 (raw fluorescence reading): 13631
SfurOBP2; ligand concentration 4 (unit not given), replicate column 2 of 3
  Fluorescence competitive binding assay, OBP2 (raw fluorescence reading): 13783
SfurOBP2; ligand concentration 4 (unit not given), replicate column 3 of 3
  Fluorescence competitive binding assay, OBP2 (raw fluorescence reading): 13500
SfurOBP2; ligand concentration 6 (unit not given), replicate column 1 of 3
  Fluorescence competitive binding assay, OBP2 (raw fluorescence reading): 14480
SfurOBP2; ligand concentration 6 (unit not given), replicate column 2 of 3
  Fluorescence competitive binding assay, OBP2 (raw fluorescence reading): 14028
SfurOBP2; ligand concentration 6 (unit not given), replicate column 3 of 3
  Fluorescence competitive binding assay, OBP2 (raw fluorescence reading): 13866
SfurOBP2; ligand concentration 8 (unit not given), replicate column 1 of 3
  Fluorescence competitive binding assay, OBP2 (raw fluorescence reading): 14049
SfurOBP2; ligand concentration 8 (unit not given), replicate column 2 of 3
  Fluorescence competitive binding assay, OBP2 (raw fluorescence reading): 14101
SfurOBP2; ligand concentration 8 (unit not given), replicate column 3 of 3
  Fluorescence competitive binding assay, OBP2 (raw fluorescence reading): 13901
SfurOBP2; ligand concentration 10 (unit not given), replicate column 1 of 3
  Fluorescence competitive binding assay, OBP2 (raw fluorescence reading): 14583
SfurOBP2; ligand concentration 10 (unit not given), replicate column 2 of 3
  Fluorescence competitive binding assay, OBP2 (raw fluorescence reading): 14099
SfurOBP2; ligand concentration 10 (unit not given), replicate column 3 of 3
  Fluorescence competitive binding assay, OBP2 (raw fluorescence reading): 14077
SfurOBP2; ligand concentration 12 (unit not given), replicate column 1 of 3
  Fluorescence competitive binding assay, OBP2 (raw fluorescence reading): 12819
SfurOBP2; ligand concentration 12 (unit not given), replicate column 2 of 3
  Fluorescence competitive binding assay, OBP2 (raw fluorescence reading): 13447
SfurOBP2; ligand concentration 12 (unit not given), replicate column 3 of 3
  Fluorescence competitive binding assay, OBP2 (raw fluorescence reading): 13211
SfurOBP2; ligand concentration 14 (unit not given), replicate column 1 of 3
  Fluorescence competitive binding assay, OBP2 (raw fluorescence reading): 12583
SfurOBP2; ligand concentration 14 (unit not given), replicate column 2 of 3
  Fluorescence competitive binding assay, OBP2 (raw fluorescence reading): 13279
SfurOBP2; ligand concentration 14 (unit not given), replicate column 3 of 3
  Fluorescence competitive binding assay, OBP2 (raw fluorescence reading): 13266
SfurOBP2; ligand concentration 16 (unit not given), replicate column 1 of 3
  Fluorescence competitive binding assay, OBP2 (raw fluorescence reading): 12291
SfurOBP2; ligand concentration 16 (unit not given), replicate column 2 of 3
  Fluorescence competitive binding assay, OBP2 (raw fluorescence reading): 12273
SfurOBP2; ligand concentration 16 (unit not given), replicate column 3 of 3
  Fluorescence competitive binding assay, OBP2 (raw fluorescence reading): 12414
SfurOBP2; ligand concentration 18 (unit not given), replicate column 1 of 3
  Fluorescence competitive binding assay, OBP2 (raw fluorescence reading): 15293
SfurOBP2; ligand concentration 18 (unit not given), replicate column 2 of 3
  Fluorescence competitive binding assay, OBP2 (raw fluorescence reading): 14599
SfurOBP2; ligand concentration 18 (unit not given), replicate column 3 of 3
  Fluorescence competitive binding assay, OBP2 (raw fluorescence reading): 14178
SfurOBP2; ligand concentration 20 (unit not given), replicate column 1 of 3
  Fluorescence competitive binding assay, OBP2 (raw fluorescence reading): 14271
SfurOBP2; ligand concentration 20 (unit not given), replicate column 2 of 3
  Fluorescence competitive binding assay, OBP2 (raw fluorescence reading): 14231
SfurOBP2; ligand concentration 20 (unit not given), replicate column 3 of 3
  Fluorescence competitive binding assay, OBP2 (raw fluorescence reading): 15281
SfurOBP3; ligand concentration 2
  Fluorescence competitive binding assay, fluorescence intensity: 74152 and 72365 and 72059
SfurOBP3; ligand concentration 4
  Fluorescence competitive binding assay, fluorescence intensity: 77402 and 81799 and 77600
SfurOBP3; ligand concentration 6
  Fluorescence competitive binding assay, fluorescence intensity: 79862 and 82180 and 72867
SfurOBP3; ligand concentration 8
  Fluorescence competitive binding assay, fluorescence intensity: 73959 and 76680 and 68556
SfurOBP3; ligand concentration 10
  Fluorescence competitive binding assay, fluorescence intensity: 74938 and 80983 and 75877
SfurOBP3; ligand concentration 12
  Fluorescence competitive binding assay, fluorescence intensity: 71318 and 75448 and 71285
SfurOBP3; ligand concentration 14
  Fluorescence competitive binding assay, fluorescence intensity: 70629 and 72724 and 74851
SfurOBP3; ligand concentration 16
  Fluorescence competitive binding assay, fluorescence intensity: 63137 and 66714 and 63682
SfurOBP3; ligand concentration 18
  Fluorescence competitive binding assay, fluorescence intensity: 73714 and 82385 and 76604
SfurOBP3; ligand concentration 20
  Fluorescence competitive binding assay, fluorescence intensity: 75970 and 66519 and 62854
SfurOBP3; SfurOBP3, protein and 1-NPN both 2.0 µM, competitor 2-20 µM, read-out: IC50
  pIC50: < 4.70
S. furcifera adults
  behavioral response of S. furcifera (in words): strongly attracted
S. furcifera adults; adults
  number of insects choosing hexane arm: 8
  number of insects choosing volatilies arm: 18
  number of insects failed (no choice): 14
